Reference: ChEMBL document CHEMBL3044990, “Synthesis and Insecticidal Activity of 5-Dimethylamino-1, 3dithianes” (1991)
≈ marks a conversion by molar mass, not a printed value.

Experiments:
Format in all cases: functional
Tetranychus urticae = experiment: Insecticidal activity against Tetranychus urticae (two-spotted spider mite) in kidney bean plant leaf assessed as mortality at 500 ppm after 2 days; conditions: 48 h
Chilo suppressalis = experiment: Insecticidal activity against 5th instar larva of Chilo suppressalis assessed as mortality at 50 ug/g after 48 hr
[1] = system: Henosepilachna vigintioctopunctata; experiment: Insecticidal activity against third-instar larvae of Henosepilachna vigintioctopunctata assessed as mortality after 2 days; conditions: 48 h
Spodoptera litura = experiment: Insecticidal activity against third-instar larvae of Spodoptera litura in soybean seedlings assessed as mortality at 500 ppm after 48 hr
Laodelphax striatellus = experiment: Insecticidal activity against 3rd instar larva of Laodelphax striatella (small brown planthopper) assessed as mortality at 50 ppm after 6 days; conditions: 144 h

SMILES | mortality at 500 ppm (Tetranychus urticae) [%] | mortality (Chilo suppressalis) [%] | LC50 [1] [µg/mL] | mortality at 500 ppm (Spodoptera litura) [%] | mortality at 50 ppm (Laodelphax striatellus) [%]
CCCCCCNC(=O)C1(C#N)SCC(N(C)C)CS1 (centres undefined) | 100 | 100 | 10 (≈ 31.7 µM) | 70 | 65
CCCNC(=O)C1(C#N)SCC(N(C)C)CS1 (centres undefined) | 100 | 100 | 11 (≈ 40.2 µM) | 60 | 20
CCCCCCCCCCNC(=O)C1(C#N)SCC(N(C)C)CS1 (centres undefined) | 90 | 100 | 20 (≈ 53.8 µM) | 50 | 85
CCCCCCCCCNC(=O)C1(C#N)SCC(N(C)C)CS1 (centres undefined) | 100 | 100 | 23 (≈ 64.3 µM) | 90 | 100
CN(C)C1CSC(C#N)(c2ccccc2F)SC1 (centres undefined) | 100 | 100 | 15 (≈ 53.1 µM) |  | 55
CN(C)C1CSC(C#N)(c2cccc(Br)c2)SC1 (centres undefined) | 100 | 100 | 15 (≈ 43.7 µM) |  | 70
Cc1ccc(C)c(C2(C#N)SCC(N(C)C)CS2)c1 (centres undefined) | 100 | 100 | 25 (≈ 85.5 µM) |  | 15
CN(C)C1CSC(C#N)(c2c(Cl)cccc2Cl)SC1 (centres undefined) | 80 | 100 | 15 (≈ 45 µM) |  | 99
CN(C)C1CSC(C#N)(c2ccc(N)cc2)SC1 (centres undefined) | 100 | 100 | 25 (≈ 89.5 µM) |  | 45
CN(C)C1CSC(C#N)(c2ccccc2[N+](=O)[O-])SC1 (centres undefined) | 70 | 100 | 19 (≈ 61.4 µM) |  | 85
COc1ccc(C2(C#N)SCC(N(C)C)CS2)cc1 (centres undefined) | 100 | 100 | 35 (≈ 119 µM) |  | 20
CN(C)C(=O)C1(C#N)SCC(N(C)C)CS1 (centres undefined) | 70 | 100 | 11 (≈ 42.4 µM) | 80 | 20
CN(C)C1CSC(C#N)(C(=O)NC2CCCCC2)SC1 (centres undefined) | 80 | 100 | 25 (≈ 79.7 µM) | 50 | 40
CCC(C)NC(=O)C1(C#N)SCC(N(C)C)CS1 (centres undefined) | 100 | 100 | 33 (≈ 115 µM) | 80 | 25
CN(C)C1CSC(C#N)(c2cccc([N+](=O)[O-])c2)SC1 (centres undefined) | 100 | 100 | 15 (≈ 48.5 µM) |  | 70
CN(C)C1CSSC1 [NEREISTOXIN] | 50 | 100 |  | 90 | 80
CCCCCNC(=O)C1(C#N)SCC(N(C)C)CS1 (centres undefined) | 50 | 100 | 10 (≈ 33.2 µM) | 50 | 29
CN(C)C1CSC(C#N)(c2ccccc2Br)SC1 (centres undefined) | 100 | 100 | 10 (≈ 29.1 µM) |  | 85
CCN(CC)C(=O)C1(C#N)SCC(N(C)C)CS1 (centres undefined) | 80 | 100 | 15 (≈ 52.2 µM) | 80 | 24
CN(C)C1CSC(C#N)(c2cccc(Cl)c2)SC1 (centres undefined) | 80 | 100 | 10 (≈ 33.5 µM) |  | 85
CN(C)C1CSC(C#N)(C(=O)N2CCCC2)SC1 (centres undefined) | 100 | 100 | 10 (≈ 35 µM) | 20 | 25
CCCCCCCCCCCCCCNC(=O)C1(C#N)SCC(N(C)C)CS1 (centres undefined) | 70 | 100 | 33 (≈ 77.2 µM) | 70 | 25
CN(C)C1CSC(C#N)(c2ccccc2)SC1 (centres undefined) | 10 | 100 | 200 (≈ 756 µM) |  | 15
CCCCNC(=O)C1(C#N)SCC(N(C)C)CS1 (centres undefined) | 100 | 100 | 40 (≈ 139 µM) | 80 | 20

SMILES | mortality at 500 ppm (Tetranychus urticae) [%] | mortality (Chilo suppressalis) [%] | LC50 [1] [µg/mL] | mortality at 500 ppm (Spodoptera litura) [%] | mortality at 50 ppm (Laodelphax striatellus) [%]
CC(C)NC(=O)C1(C#N)SCC(N(C)C)CS1 (centres undefined) | 100 | 100 | 40 (≈ 146 µM) | 40 | 20
CCCCCCCNC(=O)C1(C#N)SCC(N(C)C)CS1 (centres undefined) | 90 | 100 | 23 (≈ 69.8 µM) | 80 | 80
CCCCCCCCNC(=O)C1(C#N)SCC(N(C)C)CS1 (centres undefined) | 100 | 100 | 23 (≈ 66.9 µM) | 80 | 80
CN(C)C1CSC(C#N)(C(=O)NC2CC2)SC1 (centres undefined) | 40 | 100 | 8 (≈ 29.5 µM) | 50 | 25
CN(C)C1CSC(C#N)(c2ccc(Br)cc2)SC1 (centres undefined) | 100 | 100 | 25 (≈ 72.8 µM) |  | 100
CN(C)C1CSC(C#N)(c2ccc(Cl)cc2)SC1 (centres undefined) | 100 | 100 | 120 (≈ 402 µM) |  | 75
CN(C)C1CSC(C#N)(c2ccc(F)cc2)SC1 (centres undefined) | 100 | 100 | 130 (≈ 460 µM) |  | 15
CC(C)N(C(=O)C1(C#N)SCC(N(C)C)CS1)C(C)C (centres undefined) | 100 | 100 | 16 (≈ 50.7 µM) | 60 | 26
CCNC(=O)C1(C#N)SCC(N(C)C)CS1 (centres undefined) | 90 | 100 | 6 (≈ 23.1 µM) | 80 | 20
CNC(=O)C1(C#N)SCC(N(C)C)CS1 (centres undefined) | 100 | 100 | 25 (≈ 102 µM) | 90 | 50
CN(C)C1CSC(C#N)(c2cccc(C(F)(F)F)c2)SC1 (centres undefined) | 100 | 100 | 18 (≈ 54.1 µM) |  | 95
Cc1ccc(C2(C#N)SCC(N(C)C)CS2)cc1 (centres undefined) | 100 | 100 | 25 (≈ 89.8 µM) |  | 85
Cc1ccccc1C1(C#N)SCC(N(C)C)CS1 (centres undefined) | 60 | 100 | 100 (≈ 359 µM) |  | 20
CN(C)C1CSC(C#N)(C(=O)NC(C)(C)C)SC1 (centres undefined) | 100 | 100 | 20 (≈ 69.6 µM) | 80 | 45
CN(C)C1CSC(C#N)(C(N)=O)SC1 (centres undefined) | 100 | 100 | 30 (≈ 130 µM) | 100 | 35
CN(C)C1CSC(C#N)(c2cc(Cl)cc(Cl)c2)SC1 (centres undefined) | 100 | 100 | 133 (≈ 399 µM) |  | 55
CN(C)C1CSC(C#N)(c2cccc(F)c2)SC1 (centres undefined) | 100 | 100 | 18 (≈ 63.7 µM) |  | 85
CN(C)C1CSC(C#N)(c2cc(F)ccc2F)SC1 (centres undefined) | 100 | 100 | 30 (≈ 99.9 µM) |  | 30
Cc1cccc(C2(C#N)SCC(N(C)C)CS2)c1 (centres undefined) | 80 | 100 | 120 (≈ 431 µM) |  | 30
CN(C)C1CSC(C#N)(c2ccc([N+](=O)[O-])cc2)SC1 (centres undefined) | 60 | 100 | 18 (≈ 58.2 µM) |  | 95
COc1ccccc1C1(C#N)SCC(N(C)C)CS1 (centres undefined) | 100 | 100 | 30 (≈ 102 µM) |  | 20
CN1CCN(C(=O)C2(C#N)SCC(N(C)C)CS2)CC1 (centres undefined) | 100 | 100 | 20 (≈ 63.6 µM) | 20 | 35
CN(C)C1CSC(C#N)(c2ccc(Cl)c(Cl)c2)SC1 (centres undefined) | 50 | 100 | 12 (≈ 36 µM) |  | 40
CN(C)C1CSC(C#N)(c2ccccc2Cl)SC1 (centres undefined) | 100 | 100 | 15 (≈ 50.2 µM) |  | 95
